The values below come from patent US11324787B2, “Analytical methods and arrays for use in the same” (SENZAGEN AB, priority 2017, dated 2022).

Molecules are shown by their SMILES. Values joined by “and” are separate entries in the source; they are usually repeats but may differ in a detail not shown here. Identical values can stand only once. “Also recorded” adds a separate entry of the source. Like-named read-outs stand apart in the source and are kept apart here.

For series [1] the following is noted: cited from earlier work; for binary class: sens / non-sens; for true CLP: test set.
For series [2] the following is noted: cited from earlier work; for binary class (HP*): based on human potency [41] where available, otherwise according to CLP; for HP: human potency, chemicals of random forest training and test set.
Series [3] relates to myeloid cell line derived from MUTZ-3. The series is described as follows: GARD binary classification (SVM on GARD prediction signature, 200 transcripts). Particulars: for GARD binary prediction: SVM, median calibrated decision value of replicates >0 = sensitizer.
The test system is the same in series [4]. The series is described as follows: Cytotoxicity / viability by flow cytometry (propidium iodide), 24 hours exposure. Conditions: yes/no; MUTZ-3 derived cells. On the technique in general: Flow cytometry measures light scatter and fluorescence of single cells or particles in a stream.
Series [5] shares this test system. The series is described as follows: GARD random forest model predicting CLP categories (52 transcripts, Example A). Conditions: test set; for GARD predicted CLP: majority voting across replicates; for predicted CLP: separate replicates.
Where [6] appears, read: CLP annotation of 37 novel chemicals.
Setting [7] is: Table 9, chemicals training set.
Setting [8] is: chemicals of random forest training and test set.

In the case of `Cc1cccc(O)c1O` [3-methylcatechol, 3-Methylcatechol], the CLP in series [1] (setting [6]), in series [1] (setting [7]) and in series [1] (setting [8]) was 1A throughout. Besides, the binary class result in series [1] (setting [8]) is listed as “sens”. The “binary class (HP*)” value in series [2] is recorded as “S (HP 1-4 = S)”. For the same molecule, the GARD binary prediction entry in series [3] is on record as “S”. For the same molecule, in series [4], the cytotox entry is recorded as “yes”.
Consider `CC(C)C1=CC2=CC[C@@H]3[C@](C)(CCC[C@@]3(C)C(=O)O)[C@H]2CC1` [abietic acid], for which the CLP in series [1] (setting [6]), in series [1] (setting [7]) and in series [1] (setting [8]) was 1B each time. Moreover, the binary class result in series [1] (setting [8]) was “sens”. In addition, the “binary class (HP*)” value in series [2] is given as “S (HP 1-4 = S)”. For the same molecule, in series [2], the HP is recorded as 3. Moreover, the GARD binary prediction entry in series [3] is listed as “S”. In series [4], the cytotox entry is “no”.
Take `CCOC(=O)c1ccc(N)cc1` [benzocaine]: the CLP in series [1] (setting [6]) is reported as 1B. In series [1] (setting [8]), the CLP is recorded as 1B and the binary class result is “sens”. In series [2], the “binary class (HP*)” value is on record as “S (HP 1-4 = S)” and the HP was 4. Moreover, the “GARD binary classification relative to cut-off defined by benchmark samples” value in series [3] (misclassified sensitizing chemicals) is “close to the cut-off”. The cytotox result in series [4] is given as “no”.
For `CN(C)CCCN1c2ccccc2Sc2ccc(Cl)cc21` [chlorpromazine], in series [1] (setting [6]), the CLP is reported as 1A. In addition, in series [1] (setting [7]), the CLP is 1A. Further, in series [1] (setting [8]), the CLP is recorded as 1A and the binary class entry is on record as “sens”. In series [2], the “binary class (HP*)” value is recorded as “S (HP 1-4 = S)” and the HP is recorded as 3. For the same molecule, the GARD binary prediction result in series [3] is listed as “S”. For the same molecule, the cytotox entry in series [4] is “yes”.
For the molecule `CC(C)=CCCC(C)=CC=O` [citral], the CLP in series [1] (setting [6]), in series [1] (setting [7]) and in series [1] (setting [8]) was 1B in each case. Also, the binary class entry in series [1] (setting [8]) was “sens”. In addition, the “binary class (HP*)” value in series [2] is “S (HP 1-4 = S)”. Further, the HP in series [2] is 3. In series [3], the GARD binary prediction entry was “S”. Besides, the cytotox entry in series [4] is on record as “yes”.
On to `CC(C)=CCCC(C)CCO` (stereo not drawn) [citronellol], for which the CLP in series [1] (setting [6]) is 1B. In addition, the CLP in series [1] (setting [7]) is reported as 1B. Also, in series [1] (setting [8]), the CLP is on record as 1B and the binary class result is given as “sens”. In series [2], the “binary class (HP*)” value is recorded as “NS (5-6 = NS)” and the HP is 5. In addition, the GARD binary prediction entry in series [3] is reported as “S”. Further, the cytotox entry in series [4] is reported as “no”.
As for `Clc1nc(Cl)nc(Cl)n1` [cyanuric chloride], the CLP in series [1] (setting [6]) is listed as 1A; in series [1] (Table 10, chemicals test set 1), 1A; in series [1] (setting [8]), 1A. Also, in series [1] (setting [8]), the binary class result is “sens”. Besides, the “true CLP” value in series [1] (per replicate line) and in series [1] was 1A each time. For the same molecule, in series [2], the “binary class (HP*)” value was “S (HP 1-4 = S)”. Besides, the “GARD predicted CLP” value in series [5] is “no cat; also recorded: no category”. Further, in series [5], the “predicted CLP” value was “no cat (2×) and 1B”. For the same molecule, in series [4], the cytotox result was “yes”.
Consider `CCCCCCOC(=O)c1ccccc1O` [hexyl salicylate], for which the CLP in series [1] (setting [6]) was 1A. In series [1] (setting [7]), the CLP is reported as 1A. For the same molecule, in series [1] (setting [8]), the CLP is on record as 1A and the binary class entry is reported as “sens”. In series [2], the “binary class (HP*)” value is “S (HP 1-4 = S)” and the HP is recorded as 4. Further, the GARD binary prediction result in series [3] is “S”. Also, in series [4], the cytotox result is on record as “yes”.
Regarding `CCCCCC#CC(=O)OC` [methyl heptine carbonate], the CLP in series [1] (setting [6]), in series [1] (setting [7]) and in series [1] (setting [8]) was 1A throughout. Moreover, in series [1] (setting [8]), the binary class result was “sens”. Besides, the “binary class (HP*)” value in series [2] was “S (HP 1-4 = S)”. In addition, in series [2], the HP is given as 2. Also, the GARD binary prediction result in series [3] is on record as “S”. The cytotox entry in series [4] is “yes”.
On to `O=C1C=CC(=O)C=C1` [p-benzochinone, p-benzoquinone], for which, in series [5], the “GARD predicted CLP” value is on record as 1A and the “predicted CLP” value was 1A. In addition, the cytotox result in series [4] is “yes”.
